Source: paper PMC8434491, “Targeting the Integrated Stress Response Kinase GCN2 to Modulate Retroviral Integration” (Molecules, 2021)

Key:
[1] = molecular target: T1, IN's phosphorylation catalyzed by GCN2 (Homo sapiens, UniProt Q9P2K8); assay: In vitro phosphorylation assay: phosphorylation of IN catalyzed by GCN2; format: biochemical, human GCN2 / HIV-1 IN
T1 construct: expressed as a truncated version (192-1024) in fusion after a glutathione S-transferase tag; purchased SignalChem (GCN2); IN made in house in E. coli BL21 pLys E12-11G; host or cells: E. coli BL21 pLys (IN)
T1 sequence (Q9P2K8 192-1024): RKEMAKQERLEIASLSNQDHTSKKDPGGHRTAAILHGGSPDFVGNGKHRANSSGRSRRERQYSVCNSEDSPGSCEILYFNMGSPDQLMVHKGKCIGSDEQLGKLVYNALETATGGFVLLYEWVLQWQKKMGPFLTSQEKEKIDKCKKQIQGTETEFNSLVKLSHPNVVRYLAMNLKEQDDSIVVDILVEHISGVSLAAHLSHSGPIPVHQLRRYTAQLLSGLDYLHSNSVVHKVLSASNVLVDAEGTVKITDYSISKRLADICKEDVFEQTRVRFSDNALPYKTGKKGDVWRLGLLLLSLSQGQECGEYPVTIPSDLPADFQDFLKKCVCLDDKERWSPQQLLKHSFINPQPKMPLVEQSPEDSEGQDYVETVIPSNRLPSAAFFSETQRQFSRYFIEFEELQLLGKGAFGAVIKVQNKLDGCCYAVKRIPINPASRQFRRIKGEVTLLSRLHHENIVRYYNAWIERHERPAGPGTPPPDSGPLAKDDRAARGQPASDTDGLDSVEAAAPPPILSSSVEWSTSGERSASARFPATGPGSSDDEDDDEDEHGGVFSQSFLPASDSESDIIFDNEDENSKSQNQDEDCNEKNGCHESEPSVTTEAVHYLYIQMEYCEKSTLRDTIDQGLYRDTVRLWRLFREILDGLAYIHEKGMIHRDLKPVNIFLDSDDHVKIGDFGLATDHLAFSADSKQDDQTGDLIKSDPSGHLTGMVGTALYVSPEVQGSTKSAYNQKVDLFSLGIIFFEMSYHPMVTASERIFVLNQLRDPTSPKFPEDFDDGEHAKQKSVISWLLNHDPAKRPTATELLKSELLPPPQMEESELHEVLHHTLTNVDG
Method: Enzymes. GCN2 was purchased from SignalChem (EIF2AK4, cat. #E12-11G). […] Recombinant full-length IN was expressed in E. coli BL21 pLys (IPTG induction) and purified on a nickel chelating column, as described. Integrity and purity were checked by direct Coomassie coloration of elution fractions on SDS-PAGE before dialysis to remove imidazole.
In vitro phosphorylation assay. […] Reactions (20 µL) were stopped after a 60 min incubation at 30 °C by adding 10 µL of loading buffer [80 mM Tris-HCl pH 6.8, 100 mM DTT, 10% glycerol, 1% sodium dodecyl sulfate (SDS) and 0.05% bromophenol blue]. Samples were then loaded onto a 10% denaturating SDS-PAGE. After protein separation (120 V for 120 min) the gel was stained using Coomassie Brilliant Blue R-250. Autoradiography was performed using an imaging plate (Fujifilm, Tokyo, Japan) and images were obtained with a FLA-5000 Imaging System (Fujifilm).

HIV-1 IN = molecular target: T2, HIV-1 IN (Human immunodeficiency virus type 1 group M subtype B, UniProt P04585); assay: Integrase reaction, strand transfer (ST), gel-based; format: biochemical; details: serial dilutions from 100 µM to 45.7 nM
T2 construct: Recombinant full-length IN was expressed in E. coli BL21 pLys; 6xHis; made in house; host or cells: E. coli BL21 pLys
Method: Oligonucleotides. Oligonucleotides were purchased from Integrated DNA Technologies, Inc. (Leuven, Belgium), purified on polyacrylamide gel through electro-elution and dissolve in water. 19T ([…]) and 21B ([…]) correspond to the cleaved and non-cleaved strands specifically recognized by HIV-1 IN. Radiolabeling of 19T at the 5′-end was performed with [γ-^32P] ATP (Perkin-Elmer, Villebon-sur-Yvette, France) using T4 polynucleotide kinase (Promega, Charbonnières-les-Bains, France), according to the manufacturers’ instructions. Unincorporated isotopes were removed using illustra microspin G-25 Columns (Cytiva life sciences, Amersham, Little Chalfont, United Kingdom). DNA duplexes were annealed using an equimolar ratio of the complementary strand 21B, heating to 95 °C, and slow cooling to room temperature.
Integrase reactions. IN reactions were carried out by adding molecules or an equivalent volume of 100% DMSO (dimethyl sulfoxide, used as the drug solvent) to a mixture of 20 nM duplex DNA (19T/21B) and 400 nM IN in 50 mM MOPS pH 7.2, 7.5 mM MgCl2, and 14 mM 2-mercaptoethanol. Reactions were performed at 37 °C for 1 h and quenched by addition of an equal volume (10 µL) of loading buffer [formamide containing 1% SDS (sodium dodecyl sulfate), 0.25% bromophenol blue, and xylene cyanol]. Reaction products were separated in 16% polyacrylamide denaturing sequencing gels. Dried gels were visualized using a FLA-5000 imaging system (Fujifilm). Densitometric analyses were performed using the ImageQuant 5.1 software (GE Healthcare, Chicago, IL, USA) and data analyzed using Prism 6.05 software (GraphPad, San Diego, CA, USA).

SMILES: O=C1c2c(O)ccc(O)c2C(=O)c2c(NCCNCCO)ccc(NCCNCCO)c21 [NSC279836, Mitoxantrone]
- concentration giving full inhibition of IN phosphorylation ([1]; serial dilutions from 300 µM to 137 nM): 300 µM
- apparent IC50, IN phosphorylation ([1]; serial dilutions from 300 µM to 137 nM, in words): low micromolar range
- inhibition at 100 µM ([1]; single dose of 100 µM, compared to DMSO, read-out: decrease (inhibition) in IN phosphorylation): ~65%
- concentrations giving full inhibition of ST activity (HIV-1 IN; only IN present): above 11 µM
- effect on IN strand transfer activity (HIV-1 IN; only IN present): active
- apparent IC50, ST activity (HIV-1 IN; in words): low-micromolar range
